Reference: patent US5455230A, “Delta opioid receptor antagonists and their use as analgesic agents” (Aktiebolaget Astra, priority 1993, dated 1995)
Peptide text beside a SMILES is read from it.

Tests used:
μ opioid receptor = target: T1, μ opioid receptor (Rattus norvegicus, UniProt P33535); assay: μ opioid receptor binding assay, displacement of [3H]DAMGO from rat brain membranes
T1 construct: from tissue; host or cells: rat brain (without cerebellum) membranes, Sprague-Dawley
From the text: (§1) In the case of κ-ligands guinea pig brain homogenates were used, since the relative proportion of κ-binding sites is higher in guinea pig brain than in rat brain. The experimental procedure being used in our laboratory represents a modified version of the binding assay described by Pastemak et al. (Mol. Pharmacol. 11,340-351, (1975)). Male Sprague-Dawley rats (300-350 g) from the Canadian Breeding Laboratories were decapitated and after removal of the cerebellum the brains were homogenized in 30 volumes of ice-cold standard buffer (50 mM Tris-HCl, pH 7.7). After centrifugation at 30,000×g for 30 min at 4° C. the membranes were reconstituted in the original volume of standard buffer and incubated for 30 min at 37° C. (to release bound endogenous ligands). […] The incubation was terminated by filtration through Whatman GF/B filters under vacuum at 4° C. Following two washings with 5 ml portions of ice-cold standard buffer the filters were transferred to scintillation vials and treated with 1 ml Protosol (New England Nuclear) for 30 min prior to the addition of 0.5 ml acetic acid and 10 ml Aquasol (New England Nuclear). After shaking for 30 min the vials were counted at an efficiency of 40-45%. All experiments were performed in duplicates and repeated at least three times. […] Values of half-maximal inhibition (IC50) of specific binding were obtained graphically from semilogarithmic plots.

δ opioid receptor = target: T2, δ opioid receptor (Rattus norvegicus, UniProt P33533); assay: δ opioid receptor binding assay, displacement of δ-selective radioligand from rat brain membranes; settings: for Ki^μ /Ki^δ (δ-selectivity): ratio of μ and δ binding constants
T2 construct: from tissue; host or cells: rat brain (without cerebellum) membranes, Sprague-Dawley
T2 sequence (P33533 whole entry): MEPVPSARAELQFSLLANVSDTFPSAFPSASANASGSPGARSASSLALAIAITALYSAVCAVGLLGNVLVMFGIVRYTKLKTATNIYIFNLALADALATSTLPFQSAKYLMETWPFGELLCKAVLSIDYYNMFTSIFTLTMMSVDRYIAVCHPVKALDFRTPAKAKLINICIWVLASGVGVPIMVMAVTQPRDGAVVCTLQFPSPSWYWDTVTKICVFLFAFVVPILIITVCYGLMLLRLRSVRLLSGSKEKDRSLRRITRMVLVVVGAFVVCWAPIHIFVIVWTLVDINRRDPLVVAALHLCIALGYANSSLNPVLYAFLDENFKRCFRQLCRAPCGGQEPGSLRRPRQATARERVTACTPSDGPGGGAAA
From the text: as §1

μ opioid receptors [1] = target: T3, μ opioid receptors (Cavia porcellus, UniProt P97266); settings: literature value, Portoghese J. Med. Chem. 34, 1757 (1991); cited from earlier work
T3 sequence (P97266 whole entry, looked up): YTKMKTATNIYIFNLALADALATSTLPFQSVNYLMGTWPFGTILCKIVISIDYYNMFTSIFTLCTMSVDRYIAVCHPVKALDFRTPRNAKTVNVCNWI

μ opioid receptors [2] = target: T3, μ opioid receptors; assay: GPI assay: inhibition of electrically evoked contractions of the guinea pig ileum; settings: read-out: IC50 (μ agonist potency) in the GPI assay
From the text: In the GPI assay the opioid effect is primarily mediated by μ opioid receptors, whereas in the MVD assay the inhibition of the contractions is mostly due to interaction with δ opioid receptors.

δ opioid receptors = target: T4, δ opioid receptors (Mus musculus, UniProt P32300); assay: MVD assay: antagonism of δ agonist inhibition of electrically evoked contractions of the mouse vas deferens; settings: comparison with the patent's best compounds
T4 construct: electrically evoked contractions of the mouse vas deferens (MVD); from tissue; host or cells: isolated mouse vas deferens
T4 sequence (P32300 whole entry): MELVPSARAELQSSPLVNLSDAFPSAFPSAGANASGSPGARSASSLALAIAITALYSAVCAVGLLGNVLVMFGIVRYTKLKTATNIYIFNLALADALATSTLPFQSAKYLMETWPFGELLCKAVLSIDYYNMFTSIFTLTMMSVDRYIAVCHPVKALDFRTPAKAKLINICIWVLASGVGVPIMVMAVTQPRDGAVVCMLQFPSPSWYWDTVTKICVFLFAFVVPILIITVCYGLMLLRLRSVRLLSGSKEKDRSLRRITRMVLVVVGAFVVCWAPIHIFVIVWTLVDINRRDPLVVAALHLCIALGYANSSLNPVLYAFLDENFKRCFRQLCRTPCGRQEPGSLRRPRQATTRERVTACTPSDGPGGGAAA
From the text: Biosassys based on inhibition of electrically evoked contractions of the mouse vas deferens (MVD) and of the guinea pig ileum (GPI). In the GPI assay the opioid effect is primarily mediated by μ opioid receptors, whereas in the MVD assay the inhibition of the contractions is mostly due to interaction with δ opioid receptors. Antagonist potencies in these assays are expressed as so-called Ke -values (H. W. Kosterlitz & A. J. Watt, Br. J. Pharmacol. 33, 266-276 (1968)).
The GPI and MVD bioassays were carried out as reported in P. W. Schiller et al Biochem. Biophys. Res. Commun 85, 1332-1338 (1978) and J. DiMaio et al, J. Med. Chem 25 1432-1438 (1982). A log dose-response curve was determind with [Leu^5 ]enkephalin as standard for each ileum and vas preparation, and IC50 values of the compounds being tested were normalized according to A. A Waterfield et al Eur. J. Pharmacod 58, 11-18 (1979). Ke values for the TIPP-related antagonists were determind from the ratio of IC50 values (DR) obtained in the presence and absence of a fixed antagonist concentration (a) (Ke =a/(DR-1) H. W. Kosterlitz & A. J. Watt, Br. J. Pharmacol. 33, 266-276 (1968). These determinations were made with the MVD assay, using three different δ -selective agonists ([Leu^5 ] enkephalin, DPDPE and [D-Ala^2 ]deltorphin I.

T1 sequence (P33535 whole entry): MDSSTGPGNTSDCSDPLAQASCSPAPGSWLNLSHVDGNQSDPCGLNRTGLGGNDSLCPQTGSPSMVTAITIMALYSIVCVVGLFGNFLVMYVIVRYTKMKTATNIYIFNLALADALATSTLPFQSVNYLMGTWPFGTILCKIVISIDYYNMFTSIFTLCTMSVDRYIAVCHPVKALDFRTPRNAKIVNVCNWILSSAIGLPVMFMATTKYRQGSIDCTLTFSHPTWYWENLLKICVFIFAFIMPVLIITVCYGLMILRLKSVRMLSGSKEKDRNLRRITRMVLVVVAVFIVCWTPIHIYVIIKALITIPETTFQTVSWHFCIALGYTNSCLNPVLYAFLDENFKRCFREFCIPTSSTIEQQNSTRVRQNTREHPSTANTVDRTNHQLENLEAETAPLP

Question: For `NC(=O)[C@H](Cc1c[nH]c2ccccc12)NC(=O)[C@H](Cc1ccccc1)NC(=O)[C@@H]1Cc2ccccc2CN1C(=O)[C@@H](N)Cc1ccc(O)cc1` [H--Tyr--Tic--Phe--Trp--NH2] (HELM PEPTIDE1{Y.[Tic].F.W.[am]}$$$$V2.0), which Ki (μ opioid receptor) is on record?
Answer: 312 ± 75 nM

Question: What about the Ki (δ opioid receptor) of the same compound?
Answer: 1.21 ± 0.19 nM

Question: What about the “Ki^μ /Ki^δ (δ-selectivity)” value (δ opioid receptor) of the same compound?
Answer: 258

Question: Which results are given for `NC(=O)[C@H](Cc1ccccc1)NC(=O)[C@@H]1Cc2ccccc2CN1C(=O)[C@@H](N)Cc1ccc(O)cc1` [H--Tyr--Tic--Phe--NH2] (HELM PEPTIDE1{Y.[Tic].F.[am]}$$$$V2.0)?
Answer: Ki (μ opioid receptor): 624 ± 79 nM; Ki (δ opioid receptor): 12 ± 1.3 nM; Ki^μ /Ki^δ (δ-selectivity) (δ opioid receptor): 52.0

Question: Which results are given for `Oc1ccc2c3c1O[C@H]1c4[nH]c5ccccc5c4C[C@@]4(O)[C@@H](C2)N(CC2CC2)CC[C@]314` [Naltrindole, naltrindole, reference compound]?
Answer: Ke (antagonist properties) in the guinea pig ileum (GPI) assay (μ opioid receptors [1]): 29 nM; Ki (δ opioid receptor): 0.687 ± 0.1 nM

Question: For `NC(=O)[C@H](Cc1ccccc1)NC(=O)[C@H](Cc1ccccc1)NC(=O)[C@@H]1Cc2ccccc2CN1C(=O)[C@@H](N)Cc1ccc(O)cc1` [H--Tyr--Tic--Phe--Phe--NH2] (HELM PEPTIDE1{Y.[Tic].F.F.[am]}$$$$V2.0), which IC50 (μ opioid receptors [2]) is on record?
Answer: 1700 ± 220 nM

Question: What about the “Ki^μ /Ki^δ (δ-selectivity)” value (δ opioid receptor) of the same compound?
Answer: 26.3

Question: With `NC(=O)[C@H](Cc1ccccc1)NC(=O)[C@H](Cc1c[nH]c2ccccc12)NC(=O)[C@@H]1Cc2ccccc2CN1C(=O)[C@@H](N)Cc1ccc(O)cc1` [H--Tyr--Tic--Trp--Phe--NH2] (HELM PEPTIDE1{Y.[Tic].W.F.[am]}$$$$V2.0) as the compound, how does the Ki (μ opioid receptor) read?
Answer: 176 ± 21 nM

Question: And the Ki (δ opioid receptor)?
Answer: 0.248 ± 0.009 nM

Question: What about the “Ki^μ /Ki^δ (δ-selectivity)” value (δ opioid receptor) of the same compound?
Answer: 709

Question: With `N[C@@H](Cc1ccc(O)cc1)C(=O)N1Cc2ccccc2C[C@H]1C(=O)N[C@@H](Cc1c[nH]c2ccccc12)C(=O)N[C@@H](Cc1ccc([N+](=O)[O-])cc1)C(=O)O` [H--Tyr--Tic--Trp--Phe(p-NO2)--OH] (HELM PEPTIDE1{Y.[Tic].W.[O=C(O)[C@H](Cc1ccc([N+](=O)[O-])cc1)N[*:1]]}$$$$V2.0) as the compound, how does the Ki (μ opioid receptor) read?
Answer: 1520 ± 42 nM

Question: And the Ki (δ opioid receptor)?
Answer: 0.33 ± 0.004 nM

Question: What about the “Ki^μ /Ki^δ (δ-selectivity)” value (δ opioid receptor) of the same compound?
Answer: 4610

Question: Which results are given for `N[C@@H](Cc1ccc(O)cc1)C(=O)N1Cc2ccccc2C[C@H]1C(=O)N[C@@H](Cc1ccccc1)C(=O)N[C@@H](Cc1ccc([N+](=O)[O-])cc1)C(=O)O` [H--Tyr--Tic--Phe--Phe(p-NO2)--OH] (HELM PEPTIDE1{Y.[Tic].F.[O=C(O)[C@H](Cc1ccc([N+](=O)[O-])cc1)N[*:1]]}$$$$V2.0)?
Answer: Ki (μ opioid receptor): 2890 ± 660 nM; Ki (δ opioid receptor): 0.703 ± 0.099 nM; Ki^μ /Ki^δ (δ-selectivity) (δ opioid receptor): 4110

Question: Which results are given for `C=CCN(CC=C)[C@@H](Cc1ccc(O)cc1)C(=O)NC(C)(C)C(=O)NC(C)(C)C(=O)N[C@@H](Cc1ccccc1)C(=O)N[C@@H](CC(C)C)C(=O)O` [ICI 174864, N,N--diallyl--Tyr--Aib--Aib--Phe--Leu--OH, reference compound] (HELM PEPTIDE1{[C=CCN(CC=C)[C@@H](Cc1ccc(O)cc1)C(=O)[*:2]].[Aib].[Aib].F.L}$$$$V2.0)?
Answer: antagonist potency in the MVD assay compared with the most potent and selective δ antagonists of the patent (δ opioid receptors): 20 times less potent; δ-selectivity compared with the most potent and selective δ antagonists of the patent (δ opioid receptor; comparison with the patent's best compounds): 40 times less

Question: For `N[C@@H](Cc1ccc(O)cc1)C(=O)N1Cc2ccccc2C[C@H]1C(=O)N[C@@H](Cc1c[nH]c2ccccc12)C(=O)N[C@@H](Cc1ccccc1)C(=O)O` [H--Tyr--Tic--Trp--Phe--OH] (HELM PEPTIDE1{Y.[Tic].W.F}$$$$V2.0), which Ki (μ opioid receptor) is on record?
Answer: 1790 ± 380 nM

Question: What about the Ki (δ opioid receptor) of the same compound?
Answer: 0.301 ± 0.042 nM

Question: What about the “Ki^μ /Ki^δ (δ-selectivity)” value (δ opioid receptor) of the same compound?
Answer: 5950

Question: Which “Ki^μ /Ki^δ (δ-selectivity)” value (δ opioid receptor) does the source give for `N[C@@H](Cc1ccc(O)cc1)C(=O)N1Cc2ccccc2C[C@H]1C(=O)N[C@@H](Cc1ccccc1)C(=O)O` [H--Tyr--Tic--Phe--OH] (HELM PEPTIDE1{Y.[Tic].F}$$$$V2.0) here?
Answer: 141
